Test results as given in publication PMC12169663, “Deciphering the Tumor Uptake of Heterobivalent (SST2/Albumin) [^64Cu]Cu-NODAGA-cLAB-TATEs” (Journal of Medicinal Chemistry, 2025).

Columns and labels:
[1] = system: SST2-transfected HTC116 cells; parameters: method as in not given; settings: nonlabeled ligands, ref not given; cited from earlier work
[2] = system: intact AR42J cells; parameters: method as in not given; settings: nonlabeled ligands, ref not given; cited from earlier work
[3] = target: human serum albumin (HSA) (Homo sapiens, UniProt P02768)
Protocol: The ultrafiltration assay used to quantify the binding of the ^64Cu-labeled peptides to HSA was performed as previously described for NODAGA-cLAB-TATEs. , Briefly, a constant activity amount of the radioligands (10–15 MBq) were mixed with different HSA concentrations (200 nM–1.4 mM). Aliquots were loaded into the ultrafiltration devices (4104 centrifugal filter units by Millipore; 30 000 Da nominal molecular weight limit, methylcellulose micropartition membranes) and centrifuged. After centrifugation, aliquots from the top and bottom fractions were measured in a γ-counter (PerkinElmer, Wizard^2 2480 automatic gamma counter). The retained fraction was calculated as a quotient of these measurements. The dissociation constant, K d, was calculated using the Morrison equation.

[4] = in vivo; settings: female, NMRI-nu/nu (Rj:NMRI-Foxn1nu/nu), mouse, iv, total radioactivity
Protocol: The biodistribution of [ ^ 64 Cu]­Cu-NODAGA-cLAB­(5/6)-TATE, [ ^ 64 Cu]­Cu-NODAGA-cLAB4- scr TATE, and [ ^ 64 Cu]­Cu-DOTA-EB-TATE was assessed in a subcutaneous MPC tumor allograft model via small-animal PET imaging (Figure A–D). The time-activity curves (TACs) for tumor, kidneys, and heart are shown in Figure A–D (for TACs of muscle and liver, see Figure S6) and the calculated areas under curves (AUC0–48h) and tumor-to-tissue ratios are graphically summarized in Figure E,F, respectively.
(A–D) Time-activity curves (SUV, decay-corrected, as a function of time up to 48 h) obtained by PET acquisition are depicted (0–2 h in dynamic mode and time points 5, 24, and 48 h p.i.; the x-axes are segmented accordingly). Data shown are mean values (±SD) of a group of MPC tumor-bearing NMRI-nu/nu mice (n = 2, but for cLAB6-TATE n = 4). […] (E) Calculated AUC0–48h values. Data shown are mean values (±SD). (F) Tumor/organ ratios based in the AUC0–48h values.
A number of 4 × 10^6 MPC cells were resuspended in 40 μL of Dulbecco’s phosphate-buffered saline and injected subcutaneously into the shoulder of 7–10-week-old female nude mice (Rj:NMRI-Foxn1^nu/nu, Janvier Laboratories, Le Genest-Saint-Isle, France). General anesthesia was induced and maintained with inhalation of 10% (v/v) desflurane in 30% oxygen/air (v/v). Tumor growth was monitored using caliper measurements. Animals were sacrificed using CO2 inhalation and cervical dislocation. When diameters of MPC tumors reached 8 ± 3 mm (volumes of 65–282 mm^3), small-animal positron emission tomography (PET) was performed using the nanoScan PET/CT (Mediso Medical Imaging Systems, Budapest, Hungary) and Si78 PET/CT (BRUKER, Billerica, MA) instruments. Scanners were cross-calibrated using a syringe source containing 10 MBq of [^64Cu]­CuCl2 diluted in 2 mL of 0.01 M HCl. Each mouse (n = 2) received between 7 and 10 MBq of the respective radioligand (A m = 40 GBq/μmoL) delivered in 0.154 M NaCl via intravenous injection through a tail vein catheter within the initial 30 s after scan start. […] Standardized uptake values (SUV = [MBq detected activity/mL tissue]/[MBq injected activity/g body weight]) were determined in defined volumes of interest (VOIs) and reported as VOI-averaged SUVmean ± range [min–max]. Assuming a density of 1 g/mL for body tissues, the SUVs become dimensionless.

human serum albumin (HSA), sequence (P02768 25-609): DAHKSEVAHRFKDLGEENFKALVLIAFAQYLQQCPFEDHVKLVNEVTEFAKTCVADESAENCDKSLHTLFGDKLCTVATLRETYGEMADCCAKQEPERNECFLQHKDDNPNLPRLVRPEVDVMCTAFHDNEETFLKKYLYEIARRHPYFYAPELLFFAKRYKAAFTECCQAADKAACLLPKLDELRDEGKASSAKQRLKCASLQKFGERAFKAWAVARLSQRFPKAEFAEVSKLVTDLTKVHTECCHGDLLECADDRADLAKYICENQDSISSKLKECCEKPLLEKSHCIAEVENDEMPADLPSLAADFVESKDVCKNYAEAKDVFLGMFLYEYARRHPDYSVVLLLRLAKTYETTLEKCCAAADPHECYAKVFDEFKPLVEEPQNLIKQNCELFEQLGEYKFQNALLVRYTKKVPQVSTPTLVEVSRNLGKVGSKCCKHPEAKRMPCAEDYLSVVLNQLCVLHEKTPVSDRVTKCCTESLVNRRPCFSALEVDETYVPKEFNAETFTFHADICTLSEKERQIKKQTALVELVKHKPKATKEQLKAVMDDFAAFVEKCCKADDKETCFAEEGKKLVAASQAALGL

logD	Kd [3] [nM]	SUV at 24 h [4] [SUV]	SUV at 48 h [4] [SUV]	SUV at 72 h [4] [SUV]	Compound	IC50 [1] [nM]	IC50 [2] [nM]
–	–	–	–	–	DOTA-TATE	10.2	3.46
-2.26	1200	6	5.6	5.6	Cc1cc(-c2ccc(NC(=O)[C@H](CCCCNC(=O)CCN3C(=O)CC(SCCC(=O)N[C@H](Cc4ccccc4)C(=O)N[C@H]4CSSC[C@@H](C(=O)N[C@H](C(=O)O)[C@@H](C)O)NC(=O)[C@H]([C@@H](C)O)NC(=O)[C@H](CCCCN)NC(=O)[C@@H](Cc5c[nH]c6ccccc56)NC(=O)[C@H](Cc5ccc(O)cc5)NC4=O)C3=O)NC(=O)CN3CCN(CC(=O)O)CCN(CC(=O)O)CCN(CC(=O)O)CC3)c(C)c2)ccc1/N=N/c1ccc2c(S(=O)(=O)O)cc(S(=O)(=O)O)c(N)c2c1O (stereo partly shown) [[64Cu]Cu-DOTA-EB-TATE, metal not drawn]	–	–
